Assay results taken from patent US20080108642A1 (Tsinghua University, priority 2006, published 2008).
“Also recorded” adds a separate entry of the source. Counter-ions that a name gives are not always drawn.

How the values were obtained:
[1] = LC-DAD-MS analysis of ingredients in rat plasma after oral administration of QLY decoction; conditions: 20 minutes after oral administration of QLY decoction
Excerpt: Liquid chromatography simultaneously coupled with a diode array detector and a mass spectrometry detector (LC-DAD-MS) was used to analyze the pharmaceutical ingredients in rat plasma at different time points after oral administration of QLY decoction in order to determine the ingredients in QLY that could be absorbed into the body through metabolism. In this experiment, performed were comparison analyses of chromatogram and mass spectrum of QLY decoction and those of decoction of each of the constituent herbs of QLY, comparison analyses of chromatogram and mass spectrum of QLY decoction and those of QLY decoction plus blank plasma, comparison analyses of chromatogram and mass spectrum of blank plasma and those of post-administration plasma (blood sample taken at 20 min, 1 h, and 2 h respectively after oral administration of QLY decoction).

[2] = system: Human Umbilical Vein Endothelial Cells (HUVEC); assay: Suppression of endothelial cell proliferation, separate and combined use (equivalent curve / response surface method); format: cell-based; conditions: separate use
Excerpt: Human Umbilical Vein Endothelial Cells (HUVEC) were employed in the experiment and the suppression rate on endothelial cell proliferation were monitored. Classical methods including equivalent curve method and the response surface method were used and the amount-effect curves were plotted.

| SMILES | detected in plasma of rats after oral administration of QLY [1] | effect on suppressing proliferation of endothelial cells (anti-angiogenesis activity) [2] | effect on suppressing proliferation of endothelial cells (anti-angiogenesis activity) ([2]; hydrochloride) |
| --- | --- | --- | --- |
| CN1C[C@@H]2C[C@H](C1)c1cccc(=O)n1C2 [N-methylcytisine] | small amounts | – | – |
| O=C1CCCC2C3CCCN4CCCC(CN12)C34 (stereo not drawn) [matrine, Matrine] | detected | relatively strong; also recorded: remarkable effect | – |
| COC1=C[C@@H]2[C@@H]3Cc4ccc(OC)c(O)c4[C@]2(CCN3C)CC1=O [sinomenine hydrochloride] | – | – | relatively strong; also recorded: remarkable effect |
| COC1=CC2C3Cc4ccc(OC)c(O)c4[C@]2(CCN3C)CC1=O (stereo partly drawn) [sinomenine, Sinomenine] | detected | – | – |
| O=C1C=CC[C@@H]2[C@H]3CCCN4CCC[C@@H](CN12)[C@@H]34 [sophocarpine] | small amounts | – | – |
